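Exposure lasted 48 hours, with cells grown in 96-well plates and compounds tested at five concentrations. Here, GI50 denotes the concentration required for 50% inhibition of growth. TGI marks complete inhibition of growth.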
What was measured:
Assay in all cases: DTP human tumour cell line panel, 48 h
[1] = tested on: CAKI-1 renal
[2] = tested on: EKVX NSCLC
[3] = tested on: IGROV1 ovarian
[4] = tested on: M14 melanoma
[5] = tested on: NCI-H226 lung
[6] = tested on: OVCAR-3 ovarian
[7] = tested on: OVCAR-4 ovarian
[8] = tested on: RPMI-8226 leukemia
[9] = tested on: RXF 393 renal
[10] = tested on: SN12C renal

| Structure (SMILES) | GI50 [1] [µM] | TGI [1] [µM] | GI50 [2] [µM] | TGI [2] [µM] | GI50 [3] [µM] | TGI [3] [µM] | GI50 [4] [µM] | TGI [4] [µM] | GI50 [5] [µM] | TGI [5] [µM] | GI50 [6] [µM] | TGI [6] [µM] | GI50 [7] [µM] | TGI [7] [µM] | GI50 [8] [µM] | TGI [8] [µM] | GI50 [9] [µM] | TGI [9] [µM] | GI50 [10] [µM] | TGI [10] [µM] |
| --- | --- | --- | --- | --- | --- | --- | --- | --- | --- | --- | --- | --- | --- | --- | --- | --- | --- | --- | --- | --- |
| CCN(CC)CCOc1ccc(/C=C2\CC3C4CCC5=CC(=O)CC[C@]5(C)C4CC[C@]3(C)C2=O)cc1OC (stereo not given in full) | 2.66 | 6.54 | 4.88 | 19.5 | 22.7 | > 100 | 2.08 | 3.96 | 2.03 | 6.51 | 2.37 | 5.07 | 10.6 | > 100 | 1.79 | 5.03 | 1.85 | 4.56 | 2.6 | 7.06 |
| O=S1(=O)CCN(Cc2ccccn2)CC1 | – | > 100 | – | > 100 | – | > 100 | – | > 100 | – | > 100 | – | 9.94 | – | > 100 | – | > 100 | – | > 100 | – | > 100 |
| C(=C1c2ccccc2-c2ccccc21)c1ccccn1 | 3.23 | 19.6 | 5.85 | 38.3 | 4.89 | 35.9 | 4.06 | 18.2 | 14.2 | > 100 | 3.66 | 15.9 | 15.3 | > 100 | 16.2 | > 100 | 7.58 | 24.1 | 12.1 | > 100 |
| O=Cc1ccc(-c2ccc(-c3ccc(C=O)s3)o2)s1 | – | 1.31 | – | > 90 | – | 35.8 | – | > 100 | – | 2.46 | – | 5.89 | – | > 100 | – | > 100 | – | 2.65 | – | > 100 |
| CC(c1ccc(Br)cc1)C(C(=O)O)C(=O)O (stereo not given) | – | > 100 | – | > 100 | – | > 100 | – | > 100 | – | > 100 | – | > 100 | – | > 100 | – | > 100 | – | > 100 | – | > 100 |
| Cc1ccc(NC(=O)/C(CC(=O)c2c[n+](=O)c3ccccc3n2O)=N\NC(=O)C[n+]2ccccc2)cc1 | – | > 100 | – | > 100 | – | > 100 | – | > 100 | – | > 100 | – | > 100 | – | > 100 | – | > 100 | – | > 100 | – | > 100 |
| Cc1c(C(=O)/C=C/c2ccc(Cl)cc2)[n+](=O)c2ccccc2n1[O-] | – | 31.6 | – | 31.2 | – | 39.4 | – | 31.5 | – | 33.7 | – | 27.4 | – | 28.3 | – | 42.4 | – | 17.9 | – | 23.3 |
